Test results taken from ChEMBL document CHEMBL1201862, “PubChem BioAssay data set” (2004).
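All cell lines were grown in 96-well plates and treated with compound for 48 hours. Abbreviation: GI50, concentration required for 50% inhibition of growth.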 Active and inactive are the calls of the source. Cut-off read from the data, not from the text of the source: active = GI50 up to about 1.1 µM and inactive = higher.

Tests used:
Experiment in all cases: NCI-60 cell line screen, 48 h
[1] = test system: SK-MEL-5
[2] = test system: A498
[3] = test system: HCT-116
[4] = test system: SR
[5] = test system: HT-29
[6] = test system: ACHN
[7] = test system: K562
[8] = test system: OVCAR-3
[9] = test system: HCC 2998
[10] = test system: MDA-N
[11] = test system: PC-3
[12] = test system: SK-MEL-28
[13] = test system: DU-145
[14] = test system: BT-549
[15] = test system: RXF 393
[16] = test system: LOX IMVI
[17] = test system: NCI-H23
[18] = test system: NCI/ADR-RES
[19] = test system: SF-268
[20] = test system: HL-60

Measured: GI50

CCc1ccc2c(c1)/C(=C1/Nc3ccccc3C1=O)C(=O)N2
inactive: [1] 9.62 µM | [2] 4.13 µM | [3] 7.43 µM | [4] 14.1 µM | [5] 25.4 µM | [6] 5.66 µM | [7] 22.3 µM | [8] 20.6 µM | [9] 15.7 µM | [10] 34.5 µM | [11] 14.5 µM | [12] 96.6 µM | [13] 41.3 µM | [14] 25.1 µM | [15] 15.1 µM | [16] 50.7 µM | [17] 29.6 µM | [18] 28.7 µM | [19] 19.6 µM

O=c1oc2ccccc2c(Nc2ccc3c(c2)S(=O)(=O)c2ccccc2O3)c1[N+](=O)[O-]
inactive: [1] 20.1 µM | [3] 23.7 µM | [4] 22 µM | [5] 34.5 µM | [6] 22.1 µM | [7] 20.6 µM | [8] 20.8 µM | [9] 18.5 µM | [20] 27.3 µM | [10] 22.5 µM | [11] 21.5 µM | [12] 18.1 µM | [13] 27.6 µM | [14] 24.2 µM | [15] 19.5 µM | [16] 27 µM | [17] 23.5 µM | [18] 34.4 µM | [19] 33.8 µM

CC(=O)NC(Cc1c[nH]c2ccccc12)C(=O)O (stereo not drawn)
inactive: [1] > 100 µM | [2] > 100 µM | [3] > 100 µM | [4] > 100 µM | [5] > 100 µM | [6] > 100 µM | [7] > 100 µM | [8] > 100 µM | [20] > 100 µM | [10] > 100 µM | [11] > 100 µM | [12] > 100 µM | [13] > 100 µM | [14] > 100 µM | [15] > 100 µM | [16] > 100 µM | [17] > 100 µM | [18] > 100 µM | [19] > 100 µM

Cc1cc2nc(N3C(=O)/C(=C/c4ccc(N(C)C)cc4)N=C3c3ccccc3)sc2cc1C
inactive: [1] 15.2 µM | [3] 17 µM | [4] 6.05 µM | [5] 18.5 µM | [6] 19.9 µM | [7] 25.9 µM | [8] 41.5 µM | [9] 18.9 µM | [20] 16.9 µM | [10] 11.6 µM | [11] 15.9 µM | [12] 51.9 µM | [13] 50.4 µM | [14] 44.5 µM | [15] 18.5 µM | [16] 30.1 µM | [18] 28.6 µM | [19] 40 µM

O=[N+]([O-])C(=C(N1CCOCC1)N1CCOCC1)/C(Cl)=C(\Cl)[N+](=O)[O-]
inactive: [1] 1.66 µM | [2] 20.2 µM | [3] 2 µM | [4] 8.77 µM | [5] 4.1 µM | [6] 6.31 µM | [7] 3.69 µM | [8] 4.54 µM | [9] 20.4 µM | [10] 9.75 µM | [11] 16.4 µM | [12] 14.3 µM | [13] 7.45 µM | [14] 4.59 µM | [15] 1.77 µM | [16] 2.15 µM | [17] 3.33 µM | [18] 21.4 µM | [19] 10.6 µM

O=C(CN1CCOCC1)c1ccc2c(c1)oc(=O)n2CCN1CCCC1
inactive: [1] > 100 µM | [2] > 100 µM | [3] > 100 µM | [4] > 100 µM | [5] > 100 µM | [6] > 100 µM | [7] > 100 µM | [8] > 100 µM | [20] > 100 µM | [10] > 100 µM | [11] > 100 µM | [12] > 100 µM | [13] > 100 µM | [14] > 100 µM | [15] > 100 µM | [16] > 100 µM | [17] > 100 µM | [18] > 100 µM | [19] > 100 µM

COC1(C2c3ccccc3CCN2C(=O)OC(C)(C)C)C(=O)C(c2ccccc2)=C1N(C)C (stereo not drawn)
inactive: [1] 20.7 µM | [2] 25.4 µM | [3] 25.7 µM | [4] 79.3 µM | [5] 18.1 µM | [6] 33.5 µM | [8] 27.7 µM | [20] 19.7 µM | [10] 21.5 µM | [11] 25.2 µM | [12] 62.4 µM | [13] 55.8 µM | [14] 27.9 µM | [15] 30.2 µM | [17] 23.3 µM | [18] 21.1 µM | [19] 45.1 µM

O=C1c2cccc([N+](=O)[O-])c2C(=O)N1c1ncn[nH]1
inactive: [1] > 100 µM | [2] 53 µM | [3] > 100 µM | [4] > 100 µM | [5] > 100 µM | [6] > 100 µM | [7] > 100 µM | [8] > 100 µM | [20] > 100 µM | [10] > 100 µM | [11] > 100 µM | [12] > 100 µM | [13] > 100 µM | [14] 28.2 µM | [15] 63.2 µM | [16] > 100 µM | [17] > 100 µM | [18] > 100 µM | [19] 37 µM

O=Cc1cc(C(=O)OCc2ccccc2)n(S(=O)(=O)c2ccccc2)c1
inactive: [1] 4.84 µM | [3] 7.5 µM | [4] 3.47 µM | [5] 21.7 µM | [6] 15.6 µM | [7] 4.51 µM | [8] 18.7 µM | [9] 17 µM | [20] 5.75 µM | [10] 5.31 µM | [11] 16.6 µM | [12] 12.8 µM | [13] 37 µM | [14] 16 µM | [15] 33.7 µM | [16] 10.3 µM | [17] 20.6 µM | [18] 31 µM | [19] 21.1 µM

C1CSCCSS[C@@H]2CCCCC2SC1 (stereo partly drawn)
inactive: [1] > 100 µM | [3] 81.8 µM | [4] > 100 µM | [5] > 100 µM | [7] > 100 µM | [8] > 100 µM | [9] > 100 µM | [20] 56.6 µM | [10] > 100 µM | [11] > 100 µM | [12] > 100 µM | [13] > 100 µM | [14] > 100 µM | [16] > 100 µM | [17] > 100 µM | [18] > 100 µM | [19] > 100 µM

Cc1nnc2ccccc2c1O
inactive: [1] > 100 µM | [2] > 100 µM | [3] > 100 µM | [4] 25.9 µM | [5] > 100 µM | [6] > 100 µM | [7] 2.52 µM | [8] > 100 µM | [10] > 100 µM | [11] > 100 µM | [12] > 100 µM | [13] > 100 µM | [14] > 100 µM | [15] > 100 µM | [16] > 100 µM | [17] > 100 µM | [18] > 100 µM | [19] > 100 µM
